The test system of data set [1] is HIF-1α. Briefly: HIF-1α stability analysis (western blot, hypoxia). To be noted: HepG2 cells pretreated 30 minutes, then 1% O2 for 4 hours; for pIC50: HIF-1α protein level by western blot, read-out: IC50 values of respective compounds on HIF-1 α; for hypoxia-induced HIF-1α protein accumulation: western blot. It is filed as cell-based. Here is the method: HepG2 cells were pretreated with indicated concentrations of the synthetic derivatives for 30 minutes and then exposed to 1% O2 for 4 hours. HIF-1α and tubulin protein levels were analyzed using western blot analysis.

The target of data set [2] is T1, UQCRB (Homo sapiens, UniProt P14927).
T1 sequence (P14927 1-111): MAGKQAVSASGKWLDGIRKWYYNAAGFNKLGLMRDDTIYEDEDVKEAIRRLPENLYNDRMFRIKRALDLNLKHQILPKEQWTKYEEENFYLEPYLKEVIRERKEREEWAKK
Description: Surface plasmon resonance (BIAcore) competitive binding analysis. Particulars: for binding efficiency of UQCRB to biotinylated terpestacin (BT) after co-incubation: competitor 25 μM incubated with purified UQCRB protein 25 μM, BIAcore 2000; for direct binding to UQCRB: concluded from SPR competition with biotinylated terpestacin. The method, then:
SPR analysis was performed to analyze the binding of the compounds to UQCRB. Control biotin and biotinylated terpestacin (BT) were sequentially immobilized onto the surface of a streptavidin-coated sensor chip and the apparent binding affinities were calculated by subtraction of resonance values of UQCRB binding to control biotin from those of UQCRB binding to BT. For competitive binding analysis, the compounds were each incubated with the UQCRB protein, and then the complexes were injected into flow cells of the sensor chip.
In order to further investigate the binding of A1893 and A1938 to UQCRB, the present inventors performed SPR (BIAcore) analysis. Control biotin and biotinylated terpestacin were sequentially immobilized onto the surface of a streptavidin-coated sensor chip. Competitive binding molecules (A1893 and A1938, 25 μM) were incubated with the purified UQCRB protein (25 μM) in the buffer (10 mM HEPES, 150 mM NaCl, 3 mM EDTA (pH 7.4)), and then UQCRB-competitive binding molecule complexes were injected onto the sensor chip at a flow rate of 30 μl/min. The surface of the sensor chip was regenerated by the injection of 5 μl of the regeneration buffer (50 mM NaOH). Molecular interaction analysis was performed using the BIAcore 2000 system (BIAcore AB), and the apparent binding affinities were calculated by the subtraction of resonance values of UQCRB binding to control biotin from those of UQCRB binding to biotinylated terpestacin. For competitive binding analysis, terpestacin and the compounds of the present invention were each incubated with the UQCRB protein, and then the complexes were injected into flow cells of the sensor chip.

The subject of data set [3] is HUVECs. Description: Tube formation analysis on Matrigel. It is filed as cell-based, human. To be noted: VEGF 30 ng/ml, 2.5 μM and 5 μM, 8 hours. The method, then:
(§1) Serum-starved HUVECs were treated with VEGF (30 ng/mL) with or without A1893 or A1938 and then the in vitro angiogenesis analysis was performed.
Tube formation analysis was performed using HUVECs growing on Matrigel (Collaborative Biomedical Products). The 48-well plate was coated with 150 μl Matrigel, followed by polymerization at 37 for 2 hours. Then, human umbilical vein endothelial cells (HUVECs, 1×10^5 cells/well) were inoculated on Matrigel, and then VEGF (30 ng/ml) and the compound of the present invention DPCN (2.5 μM and 5 μM) were added thereto. The morphological change of cells was observed while the cells were incubated at room temperature for 8 hours. Tube formation was quantified by measuring the number of connected cells in randomly selected fields and dividing the measured number by the total number of cells in the same field.

The subject of data set [4] is HepG2 cells. Description: Mitochondrial ROS generation analysis (DCF fluorescence). It is filed as cell-based. To be noted: HepG2 cells pretreated 30 minutes, then 1% O2 for 10 minutes. The method, then: Intracellular ROS levels were determined by the DCF fluorescence. HepG2 cells were pretreated with the compounds for 30 minutes, and then exposed to 1% O2 for 10 minutes. A1893 and A1938 suppressed hypoxia-induced mitochondrial ROS generation, which confirmed that A1893 and A1938 modulate the O2 sensing function of UQCRB.
The increase in ROS generation due to complex III during hypoxia triggers HIF-1α stabilization, and consequently mediates the expression of its target genes such as VEGF. UQCRB, which is an important component in mitochondrial complex III, acts as an O2 sensor and mediates hypoxia-induced tumor angiogenesis. In order to determine whether anti-angiogenic activity of A1893 and A1938 is associated with the modulation of the O2 sensing function of UQCRB, the present inventors investigated the mitochondrial ROS-mediated hypoxic signal transmission procedure of A1893 and A1938. HepG2 liver cancer cells were pretreated with A1893 and A1938 for 30 minutes, and then exposed to 1% O2 for 10 minutes. Intracellular ROS levels were determined by the DCF fluorescence. A1893 and A1938 suppressed the hypoxia-induced mitochondrial ROS generation in HepG2 cells in a dose-dependent manner (FIG. 5).

The subject of data set [5] is HUVECs. Briefly: Invasiveness analysis (Transwell, VEGF-induced). The data set is classed as cell-based, human. Particulars: VEGF 30 ng/ml, 2.5 μM and 5 μM, 18 hours. The method, then:
as §1
Serum-starved human umbilical vein endothelial cells (HUVECs) were treated with VEGF with or without A1893 or A1938, and then the in vitro angiogenesis analysis was performed. The invasiveness of HUVECs was investigated using the Transwell chamber system with 8.0-μm pore-sized polycarbonate filter (Corning Costar). First, a lower portion of the filter was coated with 10 μl gelatin (10 mg/ml) for 1 hour, and an upper portion of the filter was coated with 10 μl Matrigel (3 mg/ml) for 2 hours. Then, 600 μl of the EBM-2 medium was put into the Transwell, and then, VEGF (30 ng/ml) and the compound of the present invention DPCN (2.5 μM and 5 μM) were added thereto. The coated filter was placed on the Transwell, and HUVECs (1×10^5 cells/well) were inoculated on the upper portion of the filter, following by incubation for 18 hours. After that, the cells were fixed with 70% methanol, and then stained with hematoxylin/eosin. Then, the total number of invaded cells was measured using an optical microscope at 100× magnification.

Data set [6] deals with HUVECs. Briefly: Viability of endothelial cells. It is filed as cell-based, human.
Where [7] appears, read: stated with the invasion analysis.
Setting [8] is: stated with the tube formation analysis.

pIC50: −log10 of the molar value.

As to `CCc1ccc(S(=O)(=O)Nc2cccc3ccc(O)cc23)cc1` [A1891, 4-ethyl-N-(7-hydroxy-naphthalen-1-yl)-benzene-sulfonamide], the negative logarithm of the IC50 (pIC50) in data set [1] was 5.00.

For `CC(C)(C)c1ccc(S(=O)(=O)Nc2ccc(O)cc2)cc1` [A1893, 4-tert-butyl-N-(4-hydroxy-phenyl)-benzene-sulfonamide], in data set [2], the “binding efficiency of UQCRB to biotinylated terpestacin (BT) after co-incubation” value (“binding efficiency of UQCRB” for short) is “significantly decreased” and the “direct binding to UQCRB” value is given as “directly bind to UQCRB”. Moreover, the “tube formation of HUVECs” value in data set [3] is listed as “inhibited the tube formation”. In data set [1], the pIC50 is 5.30 and the “hypoxia-induced HIF-1α protein accumulation” value is given as “greatly reduced”. Further, the “hypoxia-induced mitochondrial ROS generation” value in data set [4] is reported as “suppressed”. Moreover, the “VEGF-induced invasion of HUVECs” value in data set [5] is “inhibited VEGF-induced invasion”. The “viability of endothelial cells” value in data set [6] (setting [7]) is recorded as “without affecting viability”. Further, the “viability of endothelial cells” value in data set [6] (setting [8]) is reported as “without affecting viability”.

`O=S(=O)(Nc1ccc(O)cc1)c1ccc(-c2ccccc2)cc1` [A1938, biphenyl-4-sulfonic acid (4-hydroxy-phenyl)-amide]: in data set [2], the “binding efficiency of UQCRB” value was “significantly decreased” and the “direct binding to UQCRB” value is on record as “directly bind to UQCRB”. The “tube formation of HUVECs” value in data set [3] is reported as “inhibited the tube formation”. In data set [1], the negative logarithm of the IC50 (pIC50) is 5.30 and the “hypoxia-induced HIF-1α protein accumulation” value is reported as “greatly reduced”. For the same molecule, the “hypoxia-induced mitochondrial ROS generation” value in data set [4] is given as “suppressed”. Further, the “VEGF-induced invasion of HUVECs” value in data set [5] is recorded as “inhibited VEGF-induced invasion”. Moreover, the “viability of endothelial cells” value in data set [6] (setting [7]) is on record as “without affecting viability”. For the same molecule, the “viability of endothelial cells” value in data set [6] (setting [8]) is on record as “without affecting viability”.

As for `CC(C)(C)c1ccc(S(=O)(=O)Nc2ccc(O)cc2Cl)cc1` [A2000, 4-tert-butyl-N-(2-chloro-4-hydroxy-phenyl)-benzene-sulfonamide], in data set [1], the pIC50 was 5.00.

Regarding `O=S(=O)(Nc1ccc(O)cc1Cl)c1ccc(-c2ccccc2)cc1` [A2001, biphenyl-4-sulfonic acid (2-chloro-4-hydroxy-phenyl)-amide], the negative logarithm of the IC50 (pIC50) in data set [1] is 5.30.

Turning to `CC(C)(C)c1ccc(S(=O)(=O)Nc2ccc(O)c(Cl)c2)cc1` [A2003, 4-tert-butyl-N-(3-chloro-4-hydroxy-phenyl)-benznene-sulfonamide], the negative-log IC50 (pIC50) in data set [1] was 5.00.

Consider `CC(C)(C)c1ccc(S(=O)(=O)Nc2cc(Cl)c(O)c(Cl)c2)cc1` [A2006, 4-tert-butyl-N-(3,5-dichloro-4-hydroxy-phenyl)-benzene-sulfonamide], for which the pIC50 in data set [1] was 5.00.

As to `CC(C)(C)c1ccc(S(=O)(=O)Nc2ccc(O)cc2F)cc1` [A2007, 4-tert-butyl-N-(2-fluoro-4-hydroxy-phenyl)-benzene-sulfonamide], the negative logarithm of the IC50 (pIC50) in data set [1] was 5.00.

On to `O=S(=O)(Nc1ccc(O)cc1F)c1ccc(-c2ccccc2)cc1` [A2008, biphenyl-4-sulfonic acid (2-fluoro-4-hydroxy-phenyl)-amide], for which the pIC50 in data set [1] is 5.30.

As for `CC(C)(C)c1ccc(S(=O)(=O)Nc2ccc(O)c(F)c2)cc1` [A2010, 4-tert-butyl-N-(3-fluoro-4-hydroxy-phenyl)-benzene-sulfonamide], the pIC50 in data set [1] is 5.00.

Consider `O=S(=O)(Nc1cccc(O)c1)c1ccc(-c2ccccc2)cc1` [A2033, biphenyl-4-sulfonic acid (3-hydroxy-phenyl)-amide], for which the pIC50 in data set [1] was 5.30.

Regarding `CC(C)(C)c1ccc(S(=O)(=O)Nc2ccc(O)cc2[N+](=O)[O-])cc1` [A2037, 4-tert-butyl-N-(2-nitro-4-hydroxy-phenyl)-benzene-sulfonamide], the negative-log IC50 (pIC50) in data set [1] was 5.00.

On to `O=[N+]([O-])c1cc(O)ccc1NS(=O)(=O)c1ccc(-c2ccccc2)cc1` [A2038, biphenyl-4-sulfonic acid (2-nitro-4-hydroxy-phenyl)-benzene-sulfonamide], for which, in data set [1], the negative logarithm of the IC50 (pIC50) was 5.30.

For the molecule `Cc1cc(NS(=O)(=O)c2ccc(-c3ccccc3)cc2)ccc1O` [A2040, biphenyl-4-sulfonic acid (4-hydroxy-3-methyl-phenyl)-amide], the pIC50 in data set [1] is 5.30.

With `Cc1cc(NS(=O)(=O)c2ccc(-c3ccccc3)cc2)ccc1O` [A2041, biphenyl-4-sulfonic acid (4-hydrox-3-methyl-phenyl)-amide], the pIC50 in data set [1] was 5.00.

As to `O=S(=O)(Nc1cc(Cl)c(O)c(Cl)c1)c1ccc(-c2ccccc2)cc1` [A2043, biphenyl-4-sulfonic acid (3,5-dichloro-4-hydroxy-phenyl)-amide], the negative logarithm of the IC50 (pIC50) in data set [1] is 5.00.

With `O=S(=O)(Nc1cc(Cl)c(O)c(Cl)c1)c1ccc2ccccc2c1` [A2044, naphthalene-3-sulfonic acid (3,5-dichloro-4-hydroxy-phenyl)-amide], the negative logarithm of the IC50 (pIC50) in data set [1] was 5.00.

In the case of `O=S(=O)(NCCc1ccc(O)cc1)c1ccc(-c2ccccc2)cc1` [A2060, biphenyl-4-sulfonic acid [2-(4-hydroxy-phenyl)-ethyl]-amide], the pIC50 in data set [1] was 5.00.

Turning to `O=S(=O)(NC1CCC(CCO)CC1)c1ccc2ccccc2c1` (stereo not drawn) [A2069, naphthalene-2-sulfonic acid [4-(2-hydroxy-ethyl)-cyclohenxyl]-amide], in data set [1], the negative logarithm of the IC50 (pIC50) was 5.00.

`C/C1=C\C[C@]2(C)C(=O)C(O)=C([C@H](C)CO)[C@H]2C/C=C(\C)[C@@H](O)CC/C(C)=C/CC1` [terpestacin, reference compound]: the “binding efficiency of UQCRB” value in data set [2] was “significantly decreased”.

For the origin of these results see US9371286B2, “Pharmaceutical composition with enhanced efficacy for inhibiting angiogenesis” (INDUSTRY-ACADEMIC COOPERATION FOUNDATION, YONSEI UNIVERSITY, priority 2011, dated 2016).
